# Reference: ChEMBL document CHEMBL1125767, “New 5H-pyridazino[4,5-b]indole derivatives. Synthesis and studies as inhibitors of blood platelet aggregation and inotropics” (J Med Chem, 1991)
# Tests used:
# [1] = system: PDE4 (Canis lupus familiaris); experiment: Inhibition of canine heart Phosphodiesterase 4 at 100 uM
# Cavia porcellus [2] = organism: Cavia porcellus; experiment: (§1) Inhibition of ADP-induced platelet aggregation in guinea pig whole blood at 5*10e-4 M; format: functional
# Cavia porcellus [3] = organism: Cavia porcellus; experiment: (§2) Inhibition of arachidonic acid induced platelet aggregation in guinea pig whole blood at 5*10e-4 M; format: functional
# [4] = system: PDE4 (Canis lupus familiaris); experiment: Inhibition of canine heart Phosphodiesterase 4 at 50 uM
# Cavia porcellus [5] = organism: Cavia porcellus; experiment: Inhibition of arachidonic acid induced platelet aggregation in guinea pig whole blood at 10e-4 M; format: functional
# Homo sapiens [6] = organism: Homo sapiens; experiment: Inhibition of adrenaline induced platelet aggregation in human platelet rich plasma at 10e-5 M; format: functional
# Cavia porcellus [7] = organism: Cavia porcellus; experiment: Inhibition of arachidonic acid induced platelet aggregation in guinea pig whole blood at 10e-5 M; format: functional
# Homo sapiens [8] = organism: Homo sapiens; experiment: Inhibition of ADP-induced platelet aggregation in human platelet rich plasma at 10e-5 M; format: functional
# Homo sapiens [9] = organism: Homo sapiens; experiment: Inhibition of collagen induced platelet aggregation in human platelet rich plasma at 10e-5 M; format: functional
# [10] = In vitro inhibitory activity against prostaglandin E2 in platelet aggregation induced by arachidonic acid at 10e-4 M concentration.; format: functional
# Cavia porcellus [11] = organism: Cavia porcellus; experiment: Inhibition of ADP-induced platelet aggregation in guinea pig whole blood at 10e-4 M; format: functional
# Cavia porcellus [12] = organism: Cavia porcellus; experiment: Inhibition of arachidonic acid induced platelet aggregation in guinea pig whole blood at 5*10e-5 M; format: functional
# [13] = In vitro inhibitory activity against prostaglandin E2 in platelet aggregation induced by arachidonic acid at 5*10e-4 M concentration.; format: functional
# Homo sapiens [14] = organism: Homo sapiens; experiment: Inhibition of arachidonic acid induced platelet aggregation in human platelet rich plasma at 10e-5 M; format: functional
# [15] = target: PDE4 (Canis lupus familiaris); experiment: Inhibition of canine heart phosphodiesterase 4
# Cavia porcellus [16] = organism: Cavia porcellus; experiment: Inhibition of ADP-induced platelet aggregation in guinea pig whole blood at 5*10e-3 M; format: functional
# [17] = target: T1, Thromboxane-A synthase (Homo sapiens) (UniProt P24557); experiment: In vitro inhibitory activity against thromboxane B2 synthetase in platelet aggregation induced by arachidonic acid at 5*10e-3 M concentration; (Change from basal value); format: functional
# T1 sequence (whole entry): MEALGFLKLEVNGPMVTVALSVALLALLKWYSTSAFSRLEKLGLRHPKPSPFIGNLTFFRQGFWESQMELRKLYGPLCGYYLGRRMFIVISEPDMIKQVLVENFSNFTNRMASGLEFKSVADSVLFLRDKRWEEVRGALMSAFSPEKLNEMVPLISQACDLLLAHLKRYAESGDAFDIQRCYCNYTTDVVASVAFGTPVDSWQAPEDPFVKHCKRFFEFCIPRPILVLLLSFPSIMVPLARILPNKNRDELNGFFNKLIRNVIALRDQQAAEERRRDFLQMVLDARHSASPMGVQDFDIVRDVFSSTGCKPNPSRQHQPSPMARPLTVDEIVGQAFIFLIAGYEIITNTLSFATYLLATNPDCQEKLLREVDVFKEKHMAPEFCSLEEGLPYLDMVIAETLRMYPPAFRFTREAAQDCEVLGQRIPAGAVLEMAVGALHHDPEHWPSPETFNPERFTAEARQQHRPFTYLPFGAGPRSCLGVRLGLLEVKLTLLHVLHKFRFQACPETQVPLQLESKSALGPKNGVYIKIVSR
# [18] = as §2; format: functional, Cavia porcellus
# [19] = target: T1, Thromboxane-A synthase (Homo sapiens); experiment: In vitro inhibitory activity against prostaglandin E2 in platelet aggregation induced by arachidonic acid at 5*10e-3 M concentration; (Change from basal value); format: functional
# [20] = as §1; format: functional, Cavia porcellus
# Homo sapiens [21] = organism: Homo sapiens; experiment: Inhibition of arachidinoc acid induced platelet in human platelet rich plasma at 10e-5 M; format: functional
# Cavia porcellus [22] = organism: Cavia porcellus; experiment: Inhibition of arachidonic acid induced platelet aggregation in guinea pig whole blood at 5*10e-3 M; format: functional
# Cavia porcellus [23] = organism: Cavia porcellus; experiment: Inhibition of arachidonic acid induced platelet aggregation in guinea pig whole blood at 10e-6 M; format: functional
# [24] = In vitro inhibitory activity against prostaglandin E2 in platelet aggregation induced by arachidonic acid at 5*10e-5 M concentration.; format: functional
# Cavia porcellus [25] = organism: Cavia porcellus; experiment: Inhibition of arachidonic acid induced platelet aggregation in guinea pig whole blood at 5*10e-6 M; format: functional
# Cavia porcellus [26] = organism: Cavia porcellus; experiment: Inhibition of ADP-induced platelet aggregation in guinea pig whole blood at 5*10e-5 M; format: functional
# Homo sapiens [27] = organism: Homo sapiens; experiment: Inhibition of arachidinoc acid induced platelet in human platelet rich plasma at 7.5*10e-5 M.; format: functional
# Homo sapiens [28] = organism: Homo sapiens; experiment: Inhibition of adrenaline induced platelet aggregation in human platelet rich plasma at 5*10e-5 M; format: functional
# Homo sapiens [29] = organism: Homo sapiens; experiment: Inhibition of adrenaline induced platelet aggregation in human platelet rich plasma at 7.5*10e-5 M; format: functional
# Homo sapiens [30] = organism: Homo sapiens; experiment: Inhibition of collagen induced platelet aggregation in human platelet rich plasma at 7.5*10e-5 M; format: functional
# Homo sapiens [31] = organism: Homo sapiens; experiment: Inhibition of ADP-induced platelet aggregation in human platelet rich plasma at 7.5*10e-5 M; format: functional
# Homo sapiens [32] = organism: Homo sapiens; experiment: Inhibition of collagen induced platelet aggregation in human platelet rich plasma at 5*10e-5 M; format: functional
# Homo sapiens [33] = organism: Homo sapiens; experiment: Inhibition of ADP-induced platelet aggregation in human platelet rich plasma at 5*10e-5 M; format: functional
# Homo sapiens [34] = organism: Homo sapiens; experiment: Inhibition of arachidinoc acid induced platelet in human platelet rich plasma at 5*10e-5 M; format: functional
# [35] = target: T1, Thromboxane-A synthase (Homo sapiens); experiment: In vitro inhibitory activity against thromboxane B2 synthetase in platelet aggregation induced by arachidonic acid at 5*10e-4 M concentration; (Change from basal value); format: functional
# [36] = target: T1, Thromboxane-A synthase (Homo sapiens); experiment: In vitro inhibitory activity against thromboxane B2 synthetase in platelet aggregation induced by arachidonic acid at 10e-4 M concentration; (Change from basal value); format: functional
# [37] = target: T1, Thromboxane-A synthase (Homo sapiens); experiment: In vitro inhibitory activity against prostaglandin E2 in platelet aggregation induced by arachidonic acid at 10e-4 M concentration; (Change from basal value); format: functional
# [38] = target: T1, Thromboxane-A synthase (Homo sapiens); experiment: In vitro inhibitory activity against prostaglandin E2 in platelet aggregation induced by arachidonic acid at 5*10e-4 M concentration; (Change from basal value); format: functional
# Cavia porcellus [39] = organism: Cavia porcellus; experiment: Inhibition of arachidonic acid induced platelet aggregation in guinea pig whole blood at 5*10e-4 M (not determined); format: functional
# Homo sapiens [40] = organism: Homo sapiens; experiment: Inhibition of arachidonic acid induced platelet aggregation in human platelet rich plasma at 5*10e-5 M; format: functional
# Homo sapiens [41] = organism: Homo sapiens; experiment: nhibition of ADP-induced platelet aggregation in human platelet rich plasma at 5*10e-5 M; format: functional
smiles,measurement,setting,value
Cc1cc(C)n(-c2n[nH]c(N3CCN(C)CC3)c3c4ccccc4nc2-3)n1,inhibition,[1],33.4%
same,Inhibition,Cavia porcellus [2],89.25%
same,Inhibition,Cavia porcellus [3],78.25%
COc1ccccc1N1CCN(c2[nH]nc(-n3nc(C)cc3C)c3nc4ccccc4c2-3)CC1,inhibition,[4],11.9%
COc1ccc(N2CCN(c3[nH]nc(-n4nc(C)cc4C)c4nc5ccccc5c3-4)CC2)cc1,inhibition,[1],4.8%
NNc1nncc2ccccc12 [HYDRALAZINE],Inhibition,Cavia porcellus [2],0%
same,Inhibition,Cavia porcellus [3],20%
Cc1cc(C)n(-c2[nH]nc(N3CCOCC3)c3c4ccccc4nc2-3)n1,inhibition at 100 µM,Cavia porcellus [5],99.4%
same,inhibition at 10 µM,Homo sapiens [6],0%
same,inhibition at 10 µM,Cavia porcellus [7],0%
same,inhibition at 10 µM,Homo sapiens [8],24.8%
same,inhibition at 10 µM,Homo sapiens [9],36.6%
same,inhibition at 100 µM,[10],-80%
same,inhibition at 100 µM,Cavia porcellus [11],0%
same,inhibition,[1],38%
same,Inhibition,Cavia porcellus [12],59.83%
same,Inhibition,Cavia porcellus [2],47.83%
same,Inhibition,Cavia porcellus [3],100%
same,Inhibition,[13],-78%
same,inhibition at 10 µM,Homo sapiens [14],3.35%
CCOc1ccccc1N1CCN(c2[nH]nc(-n3nc(C)cc3C)c3nc4ccccc4c2-3)CC1,inhibition,[4],17.6%
NNC(=O)c1n[nH]c2c3nc4ccccc4c-3c(NN)nn12 [listing 1 of 3 here],IC50,[15],121 µM
NNC(=O)c1n[nH]c2c3nc4ccccc4c-3c(NN)nn12 [listing 2 of 3 here],inhibition at 100 µM,Cavia porcellus [5],38.3%
same,inhibition at 100 µM,Cavia porcellus [11],8.25%
CC(=O)Oc1ccccc1C(=O)O [ASPIRIN],Inhibition,Cavia porcellus [16],15%
same,Thromboxane B2 level,[17],-100%
same,inhibition at 10 µM,Homo sapiens [6],38.3%
same,inhibition at 10 µM,Homo sapiens [8],20%
same,Inhibition,[18],100%
same,inhibition at 10 µM,Homo sapiens [9],52%
same,Prostaglandin E2 level,[19],-100%
same,Inhibition,[20],100%
same,inhibition at 10 µM,Homo sapiens [21],90%
same,Inhibition,Cavia porcellus [22],30%
Cc1cc(C)n(-c2n[nH]c(-n3nc(C)cc3C)c3c4ccccc4nc2-3)n1,inhibition,[1],29.5%
COc1ccccc1N1CCN(c2n[nH]c(N3CCN(c4ccccc4OC)CC3)c3c4ccccc4nc2-3)CC1,inhibition at 100 µM,Cavia porcellus [5],26.6%
same,inhibition at 100 µM,Cavia porcellus [11],0%
same,inhibition,[1],7.52%
same,Inhibition,Cavia porcellus [2],64%
same,Inhibition,Cavia porcellus [3],56.13%
Cc1cc(C)n(-c2[nH]nc(N3CCCCC3)c3c4ccccc4nc2-3)n1,inhibition at 100 µM,Cavia porcellus [5],99.4%
same,inhibition at 10 µM,Homo sapiens [6],42.5%
same,inhibition at 10 µM,Cavia porcellus [7],67.5%
same,inhibition at 1 µM,Cavia porcellus [23],0%
same,Inhibition,[24],-100%
same,inhibition at 10 µM,Homo sapiens [8],23.9%
same,Inhibition,Cavia porcellus [25],26.38%
same,inhibition at 10 µM,Homo sapiens [9],0%
same,inhibition at 100 µM,[10],-91%
same,inhibition at 100 µM,Cavia porcellus [11],0%
same,inhibition,[1],32.8%
same,Inhibition,Cavia porcellus [12],99.5%
same,Inhibition,Cavia porcellus [2],64.83%
same,Inhibition,Cavia porcellus [3],100%
same,Inhibition,[13],-80.4%
same,inhibition at 10 µM,Homo sapiens [14],83.8%
Cc1cc(C)n(-c2[nH]nc(NN)c3c4ccccc4nc2-3)n1 [listing 1 of 2 here],inhibition,[1],9.39%
Cc1cc(C)n(-c2[nH]nc(N3CCN(c4ccc(F)cc4)CC3)c3c4ccccc4nc2-3)n1,inhibition,[4],2.52%
Cc1cc(C)n(-c2[nH]nc(NN)c3c4ccccc4nc2-3)n1.Cl,inhibition at 100 µM,Cavia porcellus [5],83%
same,Inhibition,Cavia porcellus [26],0%
same,Inhibition,Homo sapiens [27],6.5%
same,Inhibition,Homo sapiens [28],0%
same,Inhibition,Homo sapiens [29],22%
same,inhibition at 100 µM,Cavia porcellus [11],23%
same,Inhibition,Homo sapiens [30],78.4%
same,Inhibition,Homo sapiens [31],23%
same,IC50,[15],348 µM
same,Inhibition,Cavia porcellus [12],0%
same,Inhibition,Cavia porcellus [2],90%
same,Inhibition,Homo sapiens [32],0%
same,Inhibition,Cavia porcellus [3],97%
same,Inhibition,Homo sapiens [33],22%
same,Inhibition,Homo sapiens [34],4.8%
same,Inhibition,[13],11.8%
c1ccc2c(c1)[nH]c1c(-c3ncc[nH]3)nnc(-c3ncc[nH]3)c12,inhibition at 100 µM,Cavia porcellus [5],100%
same,Thromboxane B2 level,[35],-31%
same,Thromboxane B2 level,[36],-61%
same,Prostaglandin E2 level,[37],518%
same,Prostaglandin E2 level,[38],119%
same,inhibition at 100 µM,Cavia porcellus [11],23.2%
same,Inhibition,Cavia porcellus [2],24.25%
same,Inhibition,Cavia porcellus [3],98.88%
Nc1cc(-c2ccncc2)c[nH]c1=O [INAMRINONE],Inhibition,Cavia porcellus [2],49%
same,Inhibition,Cavia porcellus [3],100%
Cc1cc(C)n(-c2[nH]nc(NN)c3c4ccccc4nc2-3)n1 [listing 2 of 2 here],Inhibition,Cavia porcellus [39],92.14%
same,Inhibition,Cavia porcellus [2],67.83%
same,Inhibition,[13],96%
Cc1cc(C)n(-c2[nH]nc(Cl)c3c4ccccc4nc2-3)n1,Inhibition,Cavia porcellus [2],31%
same,Inhibition,Cavia porcellus [3],46.17%
CNNc1[nH]nc(-n2nc(C)cc2C)c2nc3ccccc3c1-2,inhibition at 100 µM,Cavia porcellus [5],7.86%
same,Inhibition,Homo sapiens [40],0%
same,Inhibition,Homo sapiens [41],0%
same,Inhibition,Homo sapiens [28],0%
same,inhibition at 100 µM,Cavia porcellus [11],0%
same,inhibition,[1],44.8%
same,IC50,[15],118 µM
same,Inhibition,Cavia porcellus [2],33.8%
same,Inhibition,Homo sapiens [32],0%
same,Inhibition,Cavia porcellus [3],100%
same,Inhibition,[13],-72.8%
NNC(=O)c1n[nH]c2c3nc4ccccc4c-3c(NN)nn12 [listing 3 of 3 here],inhibition,[1],55.9%
CCOC(=O)c1n[nH]c2c3nc4ccccc4c-3c(Cl)nn12,inhibition,[1],37%
same,Inhibition,Cavia porcellus [2],57.63%
same,Inhibition,Cavia porcellus [3],13.4%
